Consider one molecule from ChEMBL document CHEMBL4011618, “Discovery of Potent, Selective Stem Cell Factor Receptor/Platelet Derived Growth Factor Receptor Alpha (c-KIT/PDGFRα) Dual Inhibitor for the Treatment of Imatinib-Resistant Gastrointestinal Stromal Tumors (GISTs)” (J Med Chem, 2017).

The target of data set [1] is Platelet-derived growth factor receptor alpha (Homo sapiens, UniProt P16234). The experiment in a line: Inhibition of PDGFRalpha (unknown origin) using FAM-labeled peptide as substrate preincubated for 10 mins followed by substrate addition in presence of ATP by mobility shift assay.
Data set [2] in a line: Antiproliferative activity against mouse BAF3 cells assessed as cell growth inhibition after 72 hrs by cell titer-glo assay. Type of data set: cell-based.
Data set [3] in a line: Antiproliferative activity against CHL cells assessed as cell growth inhibition after 72 hrs by cell titer-glo assay. In kind it is cell-based, Cricetulus griseus. The following applies: chinese hamster.
A short description of data set [4]: Antiproliferative activity against human GIST48B cells assessed as cell growth inhibition after 72 hrs by cell titer-glo assay. Type of data set: functional.
The test system of a further data set is K562. The data set can be described thus: Antiproliferative activity against human K562 cells assessed as cell growth inhibition after 72 hrs by cell titer-glo assay. Type of data set: functional. The following applies: K562, 72 h. A general note: In ATP-based viability assays light output follows the ATP content of the culture.
For data set [5], the target named is Platelet-derived growth factor receptor beta (Homo sapiens, UniProt P09619). The data set can be described thus: Inhibition of human His-tagged PDGFRbeta (558 to 1106 residues) expressed in baculovirus by ELISA. (In general: In an ELISA, binding on a coated surface is turned into a signal by an enzyme label.)
Data set [6] deals with Vascular endothelial growth factor receptor 1 (Homo sapiens, UniProt P17948). The experiment in a line: Inhibition of human GST-tagged FLT1 (781 to 1338 residues) expressed in baculovirus by ELISA.
Vascular endothelial growth factor receptor 1, sequence (P17948 whole entry, the tested form may be a part): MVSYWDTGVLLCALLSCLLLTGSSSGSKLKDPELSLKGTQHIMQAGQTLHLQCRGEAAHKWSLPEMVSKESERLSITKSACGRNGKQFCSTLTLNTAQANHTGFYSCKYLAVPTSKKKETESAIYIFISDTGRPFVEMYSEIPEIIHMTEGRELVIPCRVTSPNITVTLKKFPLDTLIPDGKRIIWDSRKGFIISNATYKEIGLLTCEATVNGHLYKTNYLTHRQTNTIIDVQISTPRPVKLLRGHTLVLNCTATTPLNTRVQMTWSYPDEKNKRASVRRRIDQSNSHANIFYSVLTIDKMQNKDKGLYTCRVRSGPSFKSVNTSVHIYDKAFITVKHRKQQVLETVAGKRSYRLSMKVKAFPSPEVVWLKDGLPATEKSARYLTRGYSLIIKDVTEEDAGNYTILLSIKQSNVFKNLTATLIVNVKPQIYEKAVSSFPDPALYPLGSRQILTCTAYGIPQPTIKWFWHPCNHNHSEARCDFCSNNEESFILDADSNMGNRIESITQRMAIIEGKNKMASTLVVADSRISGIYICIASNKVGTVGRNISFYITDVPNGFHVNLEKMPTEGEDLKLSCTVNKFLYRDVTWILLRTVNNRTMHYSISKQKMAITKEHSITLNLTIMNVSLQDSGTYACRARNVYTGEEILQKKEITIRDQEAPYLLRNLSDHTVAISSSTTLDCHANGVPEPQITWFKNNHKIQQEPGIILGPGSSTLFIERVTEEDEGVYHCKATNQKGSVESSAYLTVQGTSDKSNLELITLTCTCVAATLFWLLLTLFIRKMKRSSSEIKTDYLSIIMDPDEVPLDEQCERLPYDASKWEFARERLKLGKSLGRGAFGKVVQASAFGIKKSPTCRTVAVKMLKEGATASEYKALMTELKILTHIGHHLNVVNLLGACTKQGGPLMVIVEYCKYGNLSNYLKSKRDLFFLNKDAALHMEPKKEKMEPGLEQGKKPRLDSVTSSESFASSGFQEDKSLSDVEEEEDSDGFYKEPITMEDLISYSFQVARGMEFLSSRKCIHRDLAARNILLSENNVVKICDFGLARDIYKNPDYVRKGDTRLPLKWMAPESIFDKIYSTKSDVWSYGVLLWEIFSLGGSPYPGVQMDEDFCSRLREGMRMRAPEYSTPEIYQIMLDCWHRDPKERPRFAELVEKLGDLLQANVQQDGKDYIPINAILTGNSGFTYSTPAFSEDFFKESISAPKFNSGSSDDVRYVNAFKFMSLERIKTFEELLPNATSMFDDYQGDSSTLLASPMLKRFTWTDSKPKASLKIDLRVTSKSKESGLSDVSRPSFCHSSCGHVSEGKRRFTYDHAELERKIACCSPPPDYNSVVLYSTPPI
Data set [7] addresses Proto-oncogene tyrosine-protein kinase receptor Ret (Homo sapiens, UniProt P07949). The experiment in a line: Inhibition of human GST-tagged RET (658 to 1114 residues) expressed in baculovirus by ELISA.
Data set [8] is described as follows: Half life in Sprague-Dawley rat at 2 mg/kg, iv up to 24 hrs post dose by LC/MS/MS analysis. In kind it is ADME, organism-based. The following applies: in vivo.
Data set [9] in a line: Apparent clearance in Sprague-Dawley rat at 2 mg/kg, iv up to 24 hrs post dose by LC/MS/MS analysis. In kind it is ADME, organism-based. The following applies: in vivo, read-out: CL(app) (converted).
The nature of data set [10]: AUC (0 to infinity) in Sprague-Dawley rat at 25 mg/kg, ip up to 24 hrs post dose by LC/MS/MS analysis. Type of data set: ADME, organism-based. More on the design: dose 25 mg/kg, time infinity, route intraperitoneal. The following applies: in vivo.
Data set [11] is described as follows: MRT (0 to infinity) in Sprague-Dawley rat at 25 mg/kg, ip up to 24 hrs post dose by LC/MS/MS analysis. Type of data set: ADME, organism-based. The following applies: in vivo.
Data set [12] can be described thus: AUC (0 to infinity) in Sprague-Dawley rat at 100 mg/kg, ip up to 24 hrs post dose by LC/MS/MS analysis. In kind it is ADME, organism-based. Also noted: dose 100 mg/kg, time infinity, route intraperitoneal. The following applies: in vivo.
Data set [13] in a line: MRT (0 to t) in Sprague-Dawley rat at 100 mg/kg, ip up to 24 hrs post dose by LC/MS/MS analysis. The following applies: in vivo. Type of data set: ADME, organism-based.
Data set [14] in a line: Tmax in Sprague-Dawley rat at 100 mg/kg, ip up to 24 hrs post dose by LC/MS/MS analysis. The note with it: in vivo. Type of data set: ADME, organism-based.
The target of data set [15] is Voltage-gated inwardly rectifying potassium channel KCNH2 (Homo sapiens, UniProt Q12809). The experiment in a line: Inhibition of human ERG expressed in CHO cells by whole cell patch clamp assay. In kind it is cell-based.
Voltage-gated inwardly rectifying potassium channel KCNH2, sequence (Q12809 whole entry): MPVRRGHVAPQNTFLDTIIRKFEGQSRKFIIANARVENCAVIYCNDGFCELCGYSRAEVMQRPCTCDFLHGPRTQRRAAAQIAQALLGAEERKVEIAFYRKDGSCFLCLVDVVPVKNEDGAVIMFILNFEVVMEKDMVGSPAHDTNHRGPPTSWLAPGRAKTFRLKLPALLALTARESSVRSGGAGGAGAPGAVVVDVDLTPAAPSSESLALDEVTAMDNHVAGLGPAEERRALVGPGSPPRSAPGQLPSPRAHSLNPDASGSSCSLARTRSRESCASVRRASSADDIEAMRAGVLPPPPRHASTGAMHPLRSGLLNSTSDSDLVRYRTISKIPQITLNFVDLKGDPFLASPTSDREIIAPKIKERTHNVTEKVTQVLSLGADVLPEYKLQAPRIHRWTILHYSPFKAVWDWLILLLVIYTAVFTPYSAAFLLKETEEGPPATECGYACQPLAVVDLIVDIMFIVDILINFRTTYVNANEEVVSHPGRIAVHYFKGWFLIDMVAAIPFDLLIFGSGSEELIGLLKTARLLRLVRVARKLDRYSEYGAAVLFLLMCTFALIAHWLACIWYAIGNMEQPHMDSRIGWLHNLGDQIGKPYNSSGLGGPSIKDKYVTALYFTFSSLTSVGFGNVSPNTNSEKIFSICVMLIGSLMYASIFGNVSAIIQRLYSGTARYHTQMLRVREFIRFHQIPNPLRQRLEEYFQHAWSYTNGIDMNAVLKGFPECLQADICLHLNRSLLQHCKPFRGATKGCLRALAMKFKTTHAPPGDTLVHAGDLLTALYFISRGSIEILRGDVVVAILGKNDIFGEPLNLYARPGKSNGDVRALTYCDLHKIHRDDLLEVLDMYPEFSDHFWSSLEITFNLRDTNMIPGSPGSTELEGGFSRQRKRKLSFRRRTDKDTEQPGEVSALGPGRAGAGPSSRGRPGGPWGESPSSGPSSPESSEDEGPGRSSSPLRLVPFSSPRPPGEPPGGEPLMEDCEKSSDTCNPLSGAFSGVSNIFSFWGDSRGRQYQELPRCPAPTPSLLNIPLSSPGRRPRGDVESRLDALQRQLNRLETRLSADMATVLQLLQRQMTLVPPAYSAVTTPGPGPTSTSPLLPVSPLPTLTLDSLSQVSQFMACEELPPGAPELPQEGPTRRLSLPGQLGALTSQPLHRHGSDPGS
The subject of data set [16] is GISTT1. The experiment in a line: Antitumor activity against human GISTT1 cells xenografted in nu/nu mouse assessed as tumor growth inhibition at 100 mg/kg, ip administered daily for 28 days relative to control. In kind it is functional. The note with it: 672 h, read-out: TGI. In general terms: A xenograft is tissue or cells of one species grown in another, often human tumour cells in immunodeficient mice.

In data set [17] the test system is GISTT1. The data set can be described thus: Antitumor activity against human GISTT1 cells xenografted in nu/nu mouse assessed as tumor growth inhibition at 25 mg/kg, ip administered daily for 28 days relative to control. Type of data set: functional. The note with it: 672 h, read-out: TGI.
For a further data set, the system named is BaF3. The experiment in a line: Antitumor activity against mouse BAF3 cells harboring TEL-cKIT-T670I mutant allografted in nu/nu mouse assessed as tumor growth inhibition at 25 mg/kg, ip administered daily for 11 days relative to control. In kind it is functional. The following applies: 264 h, read-out: TGI.
The target of data set [18] is Mast/stem cell growth factor receptor Kit (Homo sapiens, UniProt P10721).
Mast/stem cell growth factor receptor Kit, sequence (P10721 whole entry): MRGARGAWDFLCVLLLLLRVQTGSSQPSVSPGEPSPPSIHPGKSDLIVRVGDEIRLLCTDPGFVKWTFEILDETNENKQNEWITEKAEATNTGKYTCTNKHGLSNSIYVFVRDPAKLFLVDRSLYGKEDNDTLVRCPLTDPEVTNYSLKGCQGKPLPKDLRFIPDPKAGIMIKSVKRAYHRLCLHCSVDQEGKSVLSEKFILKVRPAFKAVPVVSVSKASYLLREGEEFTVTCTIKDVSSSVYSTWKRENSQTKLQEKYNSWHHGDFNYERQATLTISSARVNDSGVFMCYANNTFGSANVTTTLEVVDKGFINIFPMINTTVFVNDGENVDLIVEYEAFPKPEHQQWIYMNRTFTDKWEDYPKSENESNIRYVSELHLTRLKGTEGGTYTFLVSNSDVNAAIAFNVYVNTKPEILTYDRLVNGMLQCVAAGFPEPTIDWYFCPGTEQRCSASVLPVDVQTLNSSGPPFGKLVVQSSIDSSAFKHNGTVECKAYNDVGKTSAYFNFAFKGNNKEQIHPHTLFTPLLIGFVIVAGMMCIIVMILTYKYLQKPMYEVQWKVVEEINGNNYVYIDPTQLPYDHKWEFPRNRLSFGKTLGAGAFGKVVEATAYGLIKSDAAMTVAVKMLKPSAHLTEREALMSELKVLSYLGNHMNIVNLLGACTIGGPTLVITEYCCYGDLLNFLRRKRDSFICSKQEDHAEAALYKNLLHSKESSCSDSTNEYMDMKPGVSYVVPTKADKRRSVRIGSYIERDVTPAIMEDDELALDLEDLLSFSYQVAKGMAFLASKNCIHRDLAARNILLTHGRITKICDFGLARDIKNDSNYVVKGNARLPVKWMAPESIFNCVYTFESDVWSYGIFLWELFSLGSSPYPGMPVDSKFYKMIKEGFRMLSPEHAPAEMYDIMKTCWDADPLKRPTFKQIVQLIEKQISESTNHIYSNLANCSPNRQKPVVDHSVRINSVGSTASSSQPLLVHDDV
Description: Inhibition of cKIT (unknown origin) using FAM-labeled peptide as substrate preincubated for 10 mins followed by substrate addition in presence of ATP by mobility shift assay
Data set [19] relates to Mast/stem cell growth factor receptor Kit (Homo sapiens), P10721 [L576P].
Mast/stem cell growth factor receptor Kit (Homo sapiens), P10721 [L576P], sequence (P10721 whole entry L576P): as the sequence (P10721 whole entry) above, with L576P counted along it
Description: Inhibition of TEL-fused cKIT L576P mutant (unknown origin) expressed in mouse BAF3 cells assessed as cell growth inhibition after 72 hrs by cell titer-glo assay
Data set [20] has as its system Mast/stem cell growth factor receptor Kit (Homo sapiens), P10721 [V559D].
Data set [21] deals with Mast/stem cell growth factor receptor Kit (Homo sapiens), P10721 [V559D,V654A].
Mast/stem cell growth factor receptor Kit (Homo sapiens), P10721 [V559D,V654A], sequence (P10721 whole entry V559D/V654A): as the sequence (P10721 whole entry) above, with V559D, V654A counted along it
In data set [22] the test system is Mast/stem cell growth factor receptor Kit (Homo sapiens), P10721 [A829P].
Mast/stem cell growth factor receptor Kit (Homo sapiens), P10721 [A829P], sequence (P10721 whole entry A829P): as the sequence (P10721 whole entry) above, with A829P counted along it
Description: Inhibition of TEL-fused cKIT A829P mutant (unknown origin) expressed in mouse BAF3 cells assessed as cell growth inhibition after 72 hrs by cell titer-glo assay

A value given as a limit tells only on which side of the number the result lay.

Mast/stem cell growth factor receptor Kit (Homo sapiens), P10721 [V559D], sequence (P10721 whole entry V559D): as the sequence (P10721 whole entry) above, with V559D counted along it
Proto-oncogene tyrosine-protein kinase receptor Ret, sequence (P07949 whole entry, the tested form may be a part): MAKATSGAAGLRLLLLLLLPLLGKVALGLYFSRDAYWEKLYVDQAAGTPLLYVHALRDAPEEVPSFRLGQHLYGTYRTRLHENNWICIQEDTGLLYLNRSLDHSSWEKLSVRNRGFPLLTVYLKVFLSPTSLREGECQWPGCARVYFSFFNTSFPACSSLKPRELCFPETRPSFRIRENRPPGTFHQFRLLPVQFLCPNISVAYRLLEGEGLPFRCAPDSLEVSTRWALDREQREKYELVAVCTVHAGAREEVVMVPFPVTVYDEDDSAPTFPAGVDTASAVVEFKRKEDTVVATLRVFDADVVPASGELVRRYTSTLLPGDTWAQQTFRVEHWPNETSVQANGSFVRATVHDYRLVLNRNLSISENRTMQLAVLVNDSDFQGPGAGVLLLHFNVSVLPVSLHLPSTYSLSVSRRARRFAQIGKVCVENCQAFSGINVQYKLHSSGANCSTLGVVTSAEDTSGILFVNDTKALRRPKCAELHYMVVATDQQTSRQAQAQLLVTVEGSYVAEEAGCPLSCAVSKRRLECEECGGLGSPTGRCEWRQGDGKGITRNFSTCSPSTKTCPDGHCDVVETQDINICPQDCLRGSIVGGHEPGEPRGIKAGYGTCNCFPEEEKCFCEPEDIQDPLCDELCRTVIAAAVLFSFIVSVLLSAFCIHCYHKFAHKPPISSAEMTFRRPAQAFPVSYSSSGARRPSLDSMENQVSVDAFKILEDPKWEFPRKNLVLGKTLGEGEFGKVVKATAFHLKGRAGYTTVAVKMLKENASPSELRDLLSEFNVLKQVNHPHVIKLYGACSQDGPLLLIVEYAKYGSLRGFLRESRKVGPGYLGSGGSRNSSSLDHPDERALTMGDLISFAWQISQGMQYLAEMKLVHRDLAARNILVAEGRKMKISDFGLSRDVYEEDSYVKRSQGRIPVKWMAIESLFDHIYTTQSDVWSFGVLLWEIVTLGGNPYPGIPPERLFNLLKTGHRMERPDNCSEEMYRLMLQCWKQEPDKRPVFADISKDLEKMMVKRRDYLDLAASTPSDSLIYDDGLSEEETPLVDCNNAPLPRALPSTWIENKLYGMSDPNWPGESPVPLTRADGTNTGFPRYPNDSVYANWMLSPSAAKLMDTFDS

For `Cc1cc(NC(=O)Nc2ccc(-c3ccnc4[nH]nc(C)c34)cc2)ccc1N1CCOCC1`, the IC50 – broadly, the concentration that gives 50% inhibition – in data set [1] was 7.2 nM; in data set [5] it was less than 1 nM; in [6] it was 159 nM; in data set [7], more than 1000 nM; in data set [15], more than 40 µM; in data set [18] it was 2.4 nM. Besides, the concentration for 50% growth inhibition (GI50) (usually the concentration at which growth is held to half of that of the control) at 72 h in data set [2] came out at 4.03 µM; in [3], 7.04 µM. Besides, the 50% growth inhibitory concentration (GI50) in data set [4] is more than 10 µM; in the data set with K562, more than 10 µM; in [19] it was 10.6 nM; in [20] it was 96.5 nM; in data set [21], 330 nM; in data set [22], 11.6 nM. For the same molecule, in data set [8], the half-life (in general, how long it takes for the measured level to halve) was 41.4 min. The clearance in [9] was 15.8 mL/min/kg. For the same molecule, the AUC(0-inf) (commonly total exposure, with the tail of the curve extrapolated) was determined as 713 ng·h/mL in data set [10] and 5390 ng·h/mL in data set [12]. Besides, the MRT inf – broadly, a mean duration of stay, worked out from the concentration-time curve – in data set [11] is 6.48 h. The MRT last (usually a mean duration of stay, worked out from the concentration-time curve) at 24 h in data set [13] amounted to 7.99 h. For the same molecule, the Tmax – broadly, the time from dosing to the highest level – in data set [14] was 4 h. Also, in the data set on GISTT1 [16], the inhibition in vivo at 100 mg/kg was 81.5%. Besides, the inhibition in vivo at 25 mg/kg with GISTT1 [17] was 20.2%; in the data set with BaF3, 16.8%.
